The nature of this series: Stability of a galantamine hydrobromide aqueous solution as a function of pH (HPLC, degradation products). It is filed as physicochemical. The settings on record: 10 mg/ml aqueous solution; neutral (water pH 5.2); 80° C.; storage 24 hours. The procedure:
(c) Stability of a Galantamine Hydrobromide Aqueous Solution as a Function of pH
A galantamine hydrobromide 10 mg/ml aqueous solution was stored in acid, neutral and alkaline conditions at 80° C. for 1 up to 24 hours. After storage, the solutions were analyzed using HPLC for the presence of degradation products.

This note sets out measurements from patent US20050063998A1, “Oral solution containing galantamine and a sweetening agent” (priority 1999, published 2005).

“Also recorded” adds a separate entry of the source. Counter-ions that a name gives are not always drawn.

`COc1ccc2c3c1O[C@H]1C[C@@H](O)C=C[C@@]31CCN(C)C2` [Galantamine hydrobromide, [4aS-(4aα, 6β, 8aR*)]-4a, 5,9,10,11,12-hexa-hydro-3-methoxy-11-methyl-6H-benzofuro[3a,3,2-ef][2]benzazepin-6-ol]: the Degradation compounds entry is listed as “remained stable; also recorded: No degradation detected”.
